The subject of the assay is antenna of a male adult of peach fruit moth. Description: GC-EAD (electroantennographic detection) of the extract of peach fruit moth. The following applies: GC-EAD of pheromone gland extract; male adult 3 to 5 days after eclosion. The arrangement: species or system Carposina sasakii. The procedure: An EAD chart of the extract of peach fruit moth (Carposina sasakii) is shown in FIG. 1A and a GC chart of the extract is shown in FIG. 1B. […] In FIG. 1B, the peaks for components (5) and (6) were at the detection limit or less so that they were not detected.
In this time zone, the pheromone gland was excised from a virgin female adult (2 to 3 days old) under a microscope and immersed in n-hexane for 30 minutes. Then the insect body tissues were removed from the extraction liquid by filtration to produce an extract of peach fruit moth.
A GC-EAD (Gas Chromatography-Electroantennographic Detection) chart of the above extract of peach fruit moth is shown in FIG. 1.
Structural analyses of dimethyl disulfide (DMDS) adducts was conducted for each of the unsaturated bond sites of the monoene components. Finally, it was found in comparison with the retention times and mass spectra of the corresponding synthesized products that the components (1) to (6) were docosane, tricosane, (Z)-7-tricosene, (Z)-5-pentacosene, (Z)-12-nonadecen-9-one and (Z)-7-heneicosen-11-one, respectively, and the mixing weight ratio thereof was 6:341:432:36:2:8 with respect to 100 of (Z)-13-eicosen-10-one. FIGS. 2 to 7 show the mass spectra of the components (1) to (6) in the extract of peach fruit moth, while FIGS. 8 to 13 show the mass spectra of the commercial products and synthesized compounds.

`CCCCCC/C=C\CCC(=O)CCCCCCCCC` [(Z)-13-eicosen-10-one]: the “potential response of the antenna of a male adult (EAD)” value is listed as “showed a potential response”.

The record behind these values is patent publication US20170079267A1, “SEX PHEROMONE COMPOSITION OF PEACH FRUIT MOTH AND ATTRACTANT COMPRISING THE SAME” (SHIN-ETSU CHEMICAL CO., LTD., priority 2011, published 2017).
